Experiment [1] deals with T1, PSMA-expressing C4-2 cells (Homo sapiens, UniProt Q04609).
T1 construct: PSMA-expressing C4-2 cells (ATCC, Cat. No. CRL-3314) were cultured in RPMI-1640; host or cells: C4-2 cells
The experiment is described as follows: FACS binding assay (competition with 50 nM PSM-0183). The conditions noted are these: FACS binding, PSMA-expressing C4-2 cells, pIC50 category; for IC50: read-out: pIC50 [C4-2] CAT (converted). In a few lines:
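Competition format: fluorescent tracer PSM-0183 (50 nM) displaced from PSMA on C4-2 cells by a test compound titration over 1 h at 4 °C. Bound tracer was quantified as flow-cytometric AF488 median fluorescence after washing. Four-parameter logistic fits of MFI data gave IC50 and pIC50.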
On the technique in general: Flow cytometry measures light scatter and fluorescence of single cells or particles in a stream.

Experiment [2] deals with T2, Fc-fusion protein of human PSMA (hPSMA-Fc) (Homo sapiens, UniProt Q04609).
T2 construct: purchased Acro Biosystems PSA-H5264
Description: Surface plasmon resonance assay (Biacore T200, single cycle kinetic). The format is binding. The conditions noted are these: PSMA SPR assay, hPSMA-Fc, 25° C.; pKD category; read-out: pKD CAT (converted). In a few lines:
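KD, expressed as pKD, came from 1:1 Langmuir fits of reference- and buffer-blank-subtracted SPR data. The runs were single-cycle kinetics at 25° C in HBST/0.1% DMSO over human PSMA-Fc, captured to ~1000 RU on a peptide-coated CM5 surface and regenerated with 10 mM glycine pH 1.5.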
Background: Surface plasmon resonance follows binding to a sensor surface in real time, without labels.

Numbered stars: 1 amine (or outer) side, 2 acyl side, 3 side chain; on linkers, the order of the positions; unused ones are H or OH. Bridge positions count the residues as written; N and C are the ends. Square brackets hold non-standard residues; d marks the D form. Peptide text beside a SMILES is read from it. * marks the point of attachment. DOTA = O=C(O)CN1CCN(CC(=O)O)CCN(CC(=O)*)CCN(CC(=O)O)CC1; Trp(5-Cl) = N[C@@H](Cc1c[nH]c2ccc(Cl)cc12)C(=O)O; Phe(4-Cl) = N[C@@H](Cc1ccc(Cl)cc1)C(=O)O; Arg(Me) = CNC(=N)NCCC[C@H](N)C(=O)O; X1 = O=C(CC1CCN([*:1])CC1)[*:2]; Cit = NC(=O)NCCC[C@H](N)C(=O)O; Lys(Me) = CNCCCC[C@H](N)C(=O)O; d(αMeS) = C[C@@](N)(CO)C(=O)O; Tle = CC(C)(C)[C@H](N)C(=O)O; 4Abz = Nc1ccc(C(=O)O)cc1; Nle = CCCC[C@H](N)C(=O)O; Aib = CC(C)(N)C(=O)O; Ahx = NCCCCCC(=O)O; GABA = NCCCC(=O)O Some results are limits rather than exact numbers.

T1 sequence (Q04609 whole entry): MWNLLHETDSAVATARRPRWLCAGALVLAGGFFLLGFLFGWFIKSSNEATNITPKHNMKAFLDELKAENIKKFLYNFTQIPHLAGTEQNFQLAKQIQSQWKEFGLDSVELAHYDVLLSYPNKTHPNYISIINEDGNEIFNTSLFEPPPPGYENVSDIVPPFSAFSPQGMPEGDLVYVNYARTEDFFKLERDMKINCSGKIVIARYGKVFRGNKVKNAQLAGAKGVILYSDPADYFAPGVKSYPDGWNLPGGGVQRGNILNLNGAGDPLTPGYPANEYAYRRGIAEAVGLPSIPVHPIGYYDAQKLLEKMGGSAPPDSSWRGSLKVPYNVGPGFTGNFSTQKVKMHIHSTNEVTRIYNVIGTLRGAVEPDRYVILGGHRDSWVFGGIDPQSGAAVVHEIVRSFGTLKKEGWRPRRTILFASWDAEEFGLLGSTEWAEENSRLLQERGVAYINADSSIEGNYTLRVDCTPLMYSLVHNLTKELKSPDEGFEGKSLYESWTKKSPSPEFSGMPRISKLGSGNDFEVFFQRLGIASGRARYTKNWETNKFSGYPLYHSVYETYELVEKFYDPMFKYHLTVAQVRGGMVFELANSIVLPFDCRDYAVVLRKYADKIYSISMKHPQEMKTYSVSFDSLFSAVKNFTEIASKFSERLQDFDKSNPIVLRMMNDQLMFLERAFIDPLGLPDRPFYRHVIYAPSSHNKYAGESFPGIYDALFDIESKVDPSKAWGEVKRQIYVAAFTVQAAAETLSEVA
T2 sequence (Q04609 44-750 limits assumed): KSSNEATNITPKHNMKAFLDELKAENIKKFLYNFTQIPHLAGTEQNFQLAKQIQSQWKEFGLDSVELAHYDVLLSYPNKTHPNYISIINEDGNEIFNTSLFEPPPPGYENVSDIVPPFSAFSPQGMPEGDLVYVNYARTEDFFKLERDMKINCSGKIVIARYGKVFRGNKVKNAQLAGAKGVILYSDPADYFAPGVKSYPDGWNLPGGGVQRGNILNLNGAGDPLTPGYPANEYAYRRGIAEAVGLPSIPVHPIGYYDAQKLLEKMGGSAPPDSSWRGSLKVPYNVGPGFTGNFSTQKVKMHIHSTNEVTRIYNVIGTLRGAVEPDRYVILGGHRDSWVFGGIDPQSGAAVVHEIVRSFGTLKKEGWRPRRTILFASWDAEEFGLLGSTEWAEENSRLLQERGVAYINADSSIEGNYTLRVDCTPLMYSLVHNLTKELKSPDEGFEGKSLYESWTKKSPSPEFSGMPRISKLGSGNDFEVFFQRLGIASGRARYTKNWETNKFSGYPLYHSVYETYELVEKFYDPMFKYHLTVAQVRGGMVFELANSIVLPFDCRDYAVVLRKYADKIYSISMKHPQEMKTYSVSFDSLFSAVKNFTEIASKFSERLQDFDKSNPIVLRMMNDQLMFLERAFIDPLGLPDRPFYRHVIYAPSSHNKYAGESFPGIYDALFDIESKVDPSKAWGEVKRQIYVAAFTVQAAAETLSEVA

As to `CC(=O)N[C@H](C(=O)NC(C)(C)C(=O)N[C@@H](Cc1ccccc1)C(=O)N[C@H]1CSSC[C@@H](C(=O)N[C@H](C(=O)N[C@H](C(=O)N[C@@H](CC(=O)O)C(N)=O)[C@@H](C)O)C(C)(C)C)NC(=O)[C@H](CC(N)=O)NC(=O)[C@H](C)NC(=O)[C@H](CCCNC(N)=O)NC(=O)[C@H](CCCCN)NC1=O)[C@@H](C)O` [PSM-0307, Ac-Thr-Aib-Pho-[Cys-Lys-Cit-Ala-Asn-Cys]-Tle-Thr-Asp-NH2] (Ac-T[Aib]FCK[Cit]ANC[Tle]TD-NH2; disulfide 4-9), the IC50 in experiment [1] is under 200 nM. In experiment [2], the Kd is under 12.6 nM.

For `CNCCCC[C@@H]1NC(=O)[C@@H](NC(=O)[C@H](Cc2c[nH]c3ccc(Cl)cc23)NC(=O)C(C)(C)NC(=O)[C@@H](NC(=O)CC2CCN(C(=O)CN3CCN(CC(=O)O)CCN(CC(=O)O)CCN(CC(=O)O)CC3)CC2)[C@@H](C)O)CSSC[C@@H](C(=O)N[C@H](C(=O)N[C@H](C(N)=O)[C@@H](C)O)C(C)(C)C)NC(=O)[C@H](CC(N)=O)NC(=O)C(C)(C)NC(=O)[C@H](CCCNC(=N)NC)NC1=O` [PSM-0308, DOTA-Cmp-Thr-Aib-5Clw-[Cys-Lys(Me)-Arg(Me)-Aib-Asn-Cys]-Tle-Thr-NH2] ({DOTA}-[X1]T[Aib][Trp(5-Cl)]C[Lys(Me)][Arg(Me)][Aib]NC[Tle]T-NH2; disulfide 5-10), the IC50 in experiment [1] is 200 to 1260 nM. Further, in experiment [2], the Kd is 126 to 501 nM.

In the case of `C[C@@H](O)[C@H](NC(=O)[C@@H](NC(=O)[C@@H]1CSSC[C@H](NC(=O)[C@H](Cc2ccc(Cl)cc2)NC(=O)C(C)(C)NC(=O)CCCCCNC(=O)CN2CCN(CC(=O)O)CCN(CC(=O)O)CCN(CC(=O)O)CC2)C(=O)N[C@@H](CCCCN)C(=O)N[C@@H](CCCNC(=N)N)C(=O)NC(C)(C)C(=O)N[C@@H](CC(N)=O)C(=O)N1)C(C)(C)C)C(N)=O` [PSM-0310, DOTA-Ahx-Aib-Pcf-[Cys-Lys-Arg-Aib-Asn-Cys]-Tle-Thr-NH2] ({DOTA-Ahx}-[Aib][Phe(4-Cl)]CKR[Aib]NC[Tle]T-NH2; disulfide 3-8), the IC50 in experiment [1] was under 200 nM. In addition, in experiment [2], the Kd is under 12.6 nM.

For `CCCC[C@H](NC(=O)[C@@H]1CSSC[C@H](NC(=O)[C@H](Cc2ccccc2)NC(=O)[C@H](C)NC(=O)[C@@H](NC(C)=O)[C@@H](C)O)C(=O)N[C@@H](CCCCN)C(=O)N[C@@H](CCCNC(=N)N)C(=O)N[C@@H](C)C(=O)N[C@@H](CC(N)=O)C(=O)N1)C(=O)N[C@H](C(=O)NCCCC(=O)O)[C@@H](C)O` [PSM-0313, Ac-Thr-Ala-Phe-[Cys-Lys-Arg-Ala-Asn-Cys]-Nle-Thr-Gab-OH] (Ac-TAFCKRANC[Nle]T[GABA]-OH; disulfide 4-9), the IC50 in experiment [1] was 200 to 1260 nM. The Kd in experiment [2] was 126 to 501 nM.

Regarding `C[C@@H](O)[C@H](NC(=O)[C@@H](NC(=O)[C@@H]1CSSC[C@H](NC(=O)[C@H](Cc2ccc(Cl)cc2)NC(=O)C(C)(C)NC(=O)[C@@H](NC(=O)CC2CCN(C(=O)CN3CCN(CC(=O)O)CCN(CC(=O)O)CCN(CC(=O)O)CC3)CC2)[C@@H](C)O)C(=O)N[C@@H](CCCCN)C(=O)N[C@@H](CCCNC(=N)N)C(=O)N[C@](C)(CO)C(=O)N[C@@H](CC(N)=O)C(=O)N1)C(C)(C)C)C(N)=O` [PSM-0314, DOTA-Cmp-Thr-Aib-Pcf-[Cys-Lys-Arg-ams-Asn-Cys]-Tle-Thr-NH2] ({DOTA}-[X1]T[Aib][Phe(4-Cl)]CKR[d(αMeS)]NC[Tle]T-NH2; disulfide 5-10), the IC50 in experiment [1] was under 200 nM. Also, in experiment [2], the Kd was under 12.6 nM.

In the case of `CC(=O)N[C@H](C(=O)NC(C)(C)C(=O)N[C@@H](Cc1ccccc1)C(=O)N[C@H]1CSSC[C@@H](C(=O)N[C@H](C(=O)N[C@H](C(=O)N[C@@H](CC(=O)O)C(N)=O)[C@@H](C)O)C(C)(C)C)NC(=O)[C@H](CC(N)=O)NC(=O)[C@H](C)NC(=O)[C@H](CCCNC(=N)N)NC(=O)[C@H](CCCCN)NC1=O)[C@@H](C)O` [PSM-0315, Ac-Thr-Aib-Phe-[Cys-Lys-arg-Als-Asn-Cys]-Tle-Thr-Asp-NH2] (Ac-T[Aib]FCKRANC[Tle]TD-NH2; disulfide 4-9), in experiment [1], the “pIC50 [C4-2] CAT” value is recorded as “A (pIC50 values >6.7)”. Further, the Kd in experiment [2] is 12.6 to 126 nM.

Take `C[C@@H](O)[C@H](NC(=O)[C@@H](NC(=O)[C@@H]1CSSC[C@H](NC(=O)[C@H](Cc2ccccc2)NC(=O)C(C)(C)NC(=O)c2ccc(NC(=O)CN3CCN(CC(=O)O)CCN(CC(=O)O)CCN(CC(=O)O)CC3)cc2)C(=O)N[C@@H](CCCCN)C(=O)N[C@@H](CCCNC(=N)N)C(=O)NC(C)(C)C(=O)N[C@@H](CC(N)=O)C(=O)N1)C(C)(C)C)C(N)=O` [PSM-0316, DOTA-Pab-Aib-Phe-[Cys-Lys-Arg-Aib-Asn-Cys]-Tle-Thr-NH2] ({DOTA-4Abz}-[Aib]FCKR[Aib]NC[Tle]T-NH2; disulfide 3-8): in experiment [1], the IC50 is under 200 nM. The Kd in experiment [2] is under 12.6 nM.

Source of the values: patent US20260083865A1, “PROSTATE SPECIFIC MEMBRANE ANTIGEN (PSMA) LIGANDS AND USE THEREOF” (priority 2022, published 2026).
